Test results reported in patent US9546157B2, “Asymmetric piperidinyl-substituted ureas as medicines” (Helsinn Healthcare SA, priority 2014, dated 2017).

Assays:
GHSR1a [1] = target: T1, GHSR1a (Homo sapiens, UniProt Q92847); experiment: Calcium FLIPR assay, GHSR-1a antagonism (reduction of ghrelin response); type: cell-based; conditions: HEK293/GHSR1a cells, ghrelin 10 nM
T1 construct: expressed in transfected cells; host or cells: HEK293
Outline: (§1)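 Uses HEK293 cells expressing GHSR1a, loaded with calcium dye, with FLIPR fluorescence followed for 2 min after addition at t=20 s. Agonism: compound alone. Antagonism: compound with 10 nM ghrelin, potency from reduction of ghrelin response; EC50/IC50 from dose-response curves.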

GHSR1a [2] = target: T1, GHSR1a; experiment: Calcium FLIPR assay, GHSR-1a agonism; type: cell-based; design: Emax: unit not given here; conditions: HEK293/GHSR1a cells
Outline: as §1

C57BL/6J mice = experiment: Food intake test in mouse (GHSR1a antagonists); type: in vivo
Description: Male C57BL/6J mice, 18-22 g body weight, were fasted overnight (16 h before compound administration) and placed in a regular light dark cycle (6:00-18:00 light/18:00-6:00 dark). After 1 wk acclimation, animals were sorted into two groups (n=6 each, 2 per cage) based on body weight. Animals in group one were be treated with vehicle and animals in group 2 were treated with the test agent (n=6 for each group). The cumulative food intake was evaluated at 1, 2, 4, 8 and 24 hrs after drug or vehicle treatment. Food intake was measured by subtracting uneaten food from the initial premeasured food.

[3] = Metabolic Stability (H = Human); type: in vitro ADME
[4] = Metabolic Stability (M = Mouse); type: in vitro ADME
[5] = Mus musculus, ip, 1 h, i.p. 30 mg/kg
[6] = Mus musculus, ip, 1 h, i.p. 10 mg/kg

T1 sequence (Q92847 whole entry): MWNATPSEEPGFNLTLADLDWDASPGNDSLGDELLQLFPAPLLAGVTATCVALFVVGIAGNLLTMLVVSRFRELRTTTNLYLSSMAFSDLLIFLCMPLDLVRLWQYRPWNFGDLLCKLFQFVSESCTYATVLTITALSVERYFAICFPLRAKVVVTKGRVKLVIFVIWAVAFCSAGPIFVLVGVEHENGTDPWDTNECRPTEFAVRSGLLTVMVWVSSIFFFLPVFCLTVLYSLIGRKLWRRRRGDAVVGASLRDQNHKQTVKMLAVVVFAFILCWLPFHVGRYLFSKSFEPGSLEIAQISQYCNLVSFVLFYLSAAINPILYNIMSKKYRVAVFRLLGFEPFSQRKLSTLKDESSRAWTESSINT

| SMILES | IC50 (GHSR1a [1]) | EC50 (GHSR1a [2]) | Metabolic Stability H [3] | Metabolic Stability M [4] | further results |
| --- | --- | --- | --- | --- | --- |
| CC(NC(=O)N(C)C1CCN(C)CC1)c1ccc(C2CC2)c(Cl)c1Cl (stereo not shown) [Compound H0494, 3-(1-(2,3-dichloro-4-cyclopropylphenyl)ethyl)-1-methyl-1-(1-methylpiperidin-4-yl)urea] | 0.052 µM | 0.066 µM | Medium | High | Emax (GHSR1a [2]): 2996; Mouse Food Intake, result in words (C57BL/6J mice; i.p., dose not given): No Effect |
| CC(NC(=O)N(C)C1CCN(C)CC1)c1ccc(-c2cccc(N)c2)c(Cl)c1Cl (stereo not shown) [Compound H0510, 3-(1-(3′-amino-2,3-dichloro-[1,1′-biphenyl]-4-yl)ethyl)-1-methyl-1-(1-methylpiperidin-4-yl)urea] | 0.014 µM | > 30 µM | High H High M | High H High M | inhibition in vivo at 30 mg/kg (C57BL/6J mice; Mus musculus, ip, 4 h, i.p. 30 mg/kg): 35% |
| COc1ccc(-c2ccc(C(C)NC(=O)N(C)C3CCN(C)CC3)c(Cl)c2Cl)cn1 (stereo not shown) [Compound H0511, 3-(1-(2,3-dichloro-4-(6-methoxypyridin-3-yl)phenyl)ethyl)-1-methyl-1-(1-methylpiepridin-4-yl)urea] | 0.098 µM | > 30 µM | Medium H Medium M | Medium H Medium M | inhibition in vivo at 30 mg/kg (C57BL/6J mice; [5]): 94% |
| CC(NC(=O)N(C)C1CCN(C)CC1)c1ccc(-c2cccs2)c(Cl)c1Cl (stereo not shown) [Compound H0536, 3-(1-(2,3-dichloro-4-(thiophen-2-yl)phenyl)ethyl)-1-methyl-1-(1-methylpiperidin-4-yl)urea] | 0.003 µM | > 30 µM | Medium H Medium M | Medium H Medium M | inhibition in vivo at 30 mg/kg (C57BL/6J mice; [5]): 76% |
| CC(NC(=O)N(C)C1CCN(C)CC1)c1ccc(Br)c2ccccc12 (stereo not shown) [Compound H0573, 3-(1-(4-bromonaphthalen-1-yl)ethyl)-1-methyl-1-(1-methylpiperidin-4-yl)urea] | 0.036 µM | > 30 µM | High | Medium | Mouse Food Intake, result in words (C57BL/6J mice; PO 30 mg/kg): PO: NSE (30 mg/kg) |
| CC(NC(=O)N(C)C1CCN(C)CC1)c1ccc(-c2cncc(C#N)c2)c(Cl)c1Cl (stereo not shown) [Compound H0613, 3-(1-(2,3-dichloro-4-(5-cyanopyridin-3-yl)phenyl)ethyl)-1-methyl-1-(1-methylpiperidin-4-yl)urea] | 0.02 µM | > 30 µM | High H High M | High H High M | Mouse Food Intake, result in words (C57BL/6J mice; IP + ANAM 30 mpk PO, at 1 h): inhibition; Mouse Food Intake, result in words (C57BL/6J mice; PO, dose not given): inhibition at 1 h; Mouse Food Intake, result in words (C57BL/6J mice; i.p. 10 mg/kg): NSE |
| CC(NC(=O)N(C)C1CCN(C)CC1)c1ccc(-c2cncc(F)c2)c(Cl)c1Cl (stereo not shown) [Compound H0614, 3-(1-(2,3-dichloro-4-(5-fluoropyridin-3-yl)phenyl)ethyl)-1-methyl-1-(1-methylpiperidin-4-yl)urea] | 0.012 µM | > 30 µM | High H High M | High H High M | Mouse Food Intake, result in words (C57BL/6J mice; PO, dose not given): No IP done, PO: NSE |
| Cc1cncc(-c2ccc(C(C)NC(=O)N(C)C3CCN(C)CC3)c(Cl)c2Cl)c1 (stereo not shown) [Compound H0639, 3-(1-(2,3-dichloro-4-(5-methylpyridin-3-yl)phenyl)ethyl)-1-methyl-1-(1-methylpiperidin-4-yl)urea] | 0.048 µM | > 30 µM | Medium H Medium M | Medium H Medium M | Mouse Food Intake, result in words (C57BL/6J mice; i.p. 10 mg/kg): NSE (10 mg/kg) |

Second part, led by results:

| IC50 (GHSR1a [1]) | EC50 (GHSR1a [2]) | Metabolic Stability H [3] | Metabolic Stability M [4] | SMILES | further results |
| --- | --- | --- | --- | --- | --- |
| 0.01 µM | > 30 µM | Medium | High | CC(NC(=O)N(C)C1CCN(C)CC1)c1ccc(-c2cccnc2)c(Cl)c1Cl (stereo not shown) [Compound H0496, 3-(1-(2,3-dichloro-4-(pyridin-3-yl)phenyl)ethyl)-1-methyl-1-(1-methylpiperidin-4-yl)urea] | Mouse Food Intake, result in words (C57BL/6J mice; i.p. 10 mg/kg): NSE (10 mg/kg) |
| 0.024 µM | > 30 µM | Medium H Medium M | Medium H Medium M | CC(NC(=O)N(C)C1CCN(C)CC1)c1ccc(-c2ccncc2)c(Cl)c1Cl (stereo not shown) [Compound H0497, 3-(1-(2,3-dichloro-4-(pyridin-4-yl)phenyl)ethyl)-1-methyl-1-(1-methylpiperidin-4-yl)urea] | Mouse Food Intake, result in words (C57BL/6J mice; i.p. 30 mg/kg): NSE (30 mg/kg) |
| 0.029 µM | > 30 µM | Medium | High | CC(NC(=O)N(C)C1CCN(C)CC1)c1ccc(-c2ccsc2)c(Cl)c1Cl (stereo not shown) [Compound H0498, 3-(1-(2,3-dichloro-4-(thiophen-3-yl)phenyl)ethyl)-1-methyl-1-(1-methylpiperidin-4-yl)urea] | inhibition in vivo at 30 mg/kg (C57BL/6J mice; [5]): 76% |
| 0.012 µM | > 30 µM | Medium H Medium M | Medium H Medium M | CC(NC(=O)N(C)C1CCN(C)CC1)c1ccc(-c2cn[nH]c2)c(Cl)c1Cl (stereo not shown) [Compound H0499, 3-(1-(2,3-dichloro-4-(1H-pyrazol-4-yl)phenyl)ethyl)-1-methyl-1-(1-methylpiperidin-4-yl)urea] | Mouse Food Intake, result in words (C57BL/6J mice; i.p. 30 mg/kg): NSE (30 mg/kg) |
| 0.029 µM | 2 µM | High H High M | High H High M | CC(NC(=O)N(C)C1CCN(C)CC1)c1ccc(-c2ccccc2)c(Cl)c1Cl (stereo not shown) [Compound H0509, 3-(1-(2,3-dichloro-[1,1′-biphenyl]-4-yl)ethyl)-1-methyl-1-(1-methylpiperidin-4-yl)urea] | Emax (GHSR1a [2]): 1790; inhibition in vivo at 10 mg/kg (C57BL/6J mice; [6]): 66% |
| 0.041 µM | > 30 µM | High H High M | High H High M | CC(NC(=O)N(C)C1CCN(C)CC1)c1ccc(-c2cncnc2)c(Cl)c1Cl (stereo not shown) [Compound H0516, 3-(1-(2,3-dichloro-4-(pyrimidin-5-yl)phenyl)ethyl)-1-methyl-1-(1-methylpiperidin-4-yl)urea] | inhibition in vivo at 30 mg/kg (C57BL/6J mice; [5]): 88%; Mouse Food Intake, result in words (C57BL/6J mice; PO, dose not given): no effect |
| 0.007 µM | > 30 µM | Medium | Poor | CC(NC(=O)N(Cc1ccc(CO)cc1)C1CCN(C)CC1)c1ccc(-c2cn[nH]c2)c(Cl)c1Cl (stereo not shown) [Compound H0553, 3-(1-(2,3-dichloro-4-(1H-pyrazol-4-yl)phenyl)ethyl)-1-(4-(hydroxymethyl)benzyl)-1-(1-methylpiperidin-4-yl)urea] | inhibition in vivo at 10 mg/kg (C57BL/6J mice; [6]): 57% |
| 0.009 µM | 0.003 µM | High H High M | High H High M | Cc1noc(-c2ccc(C(C)NC(=O)N(C)C3CCN(C)CC3)c(Cl)c2Cl)n1 (stereo not shown) [Compound H0596, 3-(1-(2,3-dichloro-4-(3-methyl-1,2,4-oxadiazol-5-yl)phenyl)ethyl)-1-methyl-1-(1-methylpiperidin-4-yl)urea] | Mouse Food Intake, result in words (C57BL/6J mice; i.p. 10 mg/kg): NSE (10 mg/kg) |
| 0.002 µM | > 30 µM | High H High M | High H High M | C#Cc1ccc(C(C)NC(=O)N(C)C2CCN(C)CC2)c(Cl)c1Cl (stereo not shown) [Compound H0603, 3-(1-(2,3-dichloro-4-ethynylphenyl)ethyl)-1-methyl-1-(1-methylpiperidin-4-yl)urea] | inhibition in vivo at 10 mg/kg (C57BL/6J mice; [6]): 34%; inhibition in vivo at 0.1 mg/kg (C57BL/6J mice; Mus musculus, ip, 1 h, i.p. 0.1 mpk): 71%; inhibition in vivo at 1 mg/kg (C57BL/6J mice; Mus musculus, ip, 1 h, i.p. 1 mpk): 65%; Mouse Food Intake, result in words (C57BL/6J mice; SC, dose not given): SC NSE; Mouse Food Intake inhibition, activity up to (C57BL/6J mice; i.p. 1 mpk): ≤ 24 h |
| 0.006 µM | 0.031 µM | Medium H Medium M | Medium H Medium M | COc1cncc(-c2ccc(C(C)NC(=O)N(C)C3CCN(C)CC3)c(Cl)c2Cl)c1 (stereo not shown) [Compound H0607, 3-(1-(2,3-dichloro-4-(5-methoxypyridin-3-yl)phenyl)ethyl)-1-methyl-1-(1-methylpiperidin-4-yl)urea] | Emax (GHSR1a [2]): 3000; Mouse Food Intake, result in words (C57BL/6J mice; i.p. 10 mg/kg): NSE (10 mg/kg) |
| 0.013 µM | 0.039 µM | High H High M | High H High M | CC(NC(=O)N(C)C1CCN(C)CC1)c1ccc(-c2ncccn2)c(Cl)c1Cl (stereo not shown) [Compound H0619, 3-(1-(2,3-dichloro-4-(pyrimidin-2-yl)phenyl)ethyl)-1-methyl-1-(1-methylpiperidin-4-yl)urea] | inhibition in vivo at 10 mg/kg (C57BL/6J mice; [6]): 34%; inhibition in vivo at 10 mg/kg (C57BL/6J mice; Mus musculus, ip, 2 h, i.p. 10 mg/kg): 34% |
| > 30 µM | 0.002 µM | High H High M | High H High M | CC(NC(=O)N(O)C1CCN(C)CC1)c1ccc(C(F)F)c(Cl)c1Cl (stereo not shown) [Compound H0621, 3-(1-(2,3-dichloro-4-(difluoromethyl)phenyl)ethyl)-1-hydroxy-1-(1-methylpiperidin-4-yl)urea] | Emax (GHSR1a [2]): 3896; Mouse Food Intake, result in words (C57BL/6J mice; i.p., dose not given): No Effect |
